# Assay results from paper PMC11767490, “A Bis-Glycosylamine Strategy for the Synthesis of Dimeric Iminosugars Based on a DAB-1 Scaffold” (Molecules, 2025).
# Like-named read-outs stand apart in the source and are kept apart here. Marks after values point to notes of the source that are not given here.
# Columns and labels:
# β-GlcNAc-ase (Jack bean) = test: glycosidase inhibition assay, β-N-acetylglucosaminidase from Jack bean; format: biochemical; conditions: for % inhibition at 1 mM concentration of inhibitor: 1 mM inhibitor, pH 5.6, negative values mean activation; for activation of enzyme activity: 1 mM compound
# Protocol: (§1) A prepared sample of DAB-1 8 was also tested under the same conditions for ease of comparison. A first set of biological assays was effected at 1 mM concentration of inhibitor. […] Former results from our laboratories have always followed this empirical rule.
# (§2) All the enzymes were purchased from Sigma Chemical Co. In a typical experiment, the glycosidase (0.013 U/mL) was pre-incubated at 33 °C for 5 min in the presence of the inhibitor in 50 mM acetate buffer (pH 5.6, except for rice α-glucosidase pH 5.1 and yeast α-glucosidase pH 6.2). The reaction was started by the addition of the appropriate substrate (p-nitrophenyl glycoside, 1 mM concentration) to a final volume of 250 µL. The reaction was stopped after 10–15 min (depending on the enzyme) by the addition of 350 µL of 0.4 M Na2CO3. The released p-nitrophenolate was quantified spectrophotometrically at 415 nm with a microplate reader (300 µL of the reaction mixture per well). […] All the assays were performed in duplicate (less than 10% variability in each case).
# [1] = target: T1, α-glucosidase (Sac. cerevisiae) (Saccharomyces cerevisiae, UniProt P53341); test: glycosidase inhibition assay, α-glucosidase from yeast; format: biochemical; conditions: for inhibition at 1000 µM: pH 6.2, read-out: % inhibition at 1 mM concentration of inhibitor, 1 mM inhibitor, negative values mean activation
# T1 construct: purchased Sigma Chemical Co
# T1 sequence (P53341 whole entry): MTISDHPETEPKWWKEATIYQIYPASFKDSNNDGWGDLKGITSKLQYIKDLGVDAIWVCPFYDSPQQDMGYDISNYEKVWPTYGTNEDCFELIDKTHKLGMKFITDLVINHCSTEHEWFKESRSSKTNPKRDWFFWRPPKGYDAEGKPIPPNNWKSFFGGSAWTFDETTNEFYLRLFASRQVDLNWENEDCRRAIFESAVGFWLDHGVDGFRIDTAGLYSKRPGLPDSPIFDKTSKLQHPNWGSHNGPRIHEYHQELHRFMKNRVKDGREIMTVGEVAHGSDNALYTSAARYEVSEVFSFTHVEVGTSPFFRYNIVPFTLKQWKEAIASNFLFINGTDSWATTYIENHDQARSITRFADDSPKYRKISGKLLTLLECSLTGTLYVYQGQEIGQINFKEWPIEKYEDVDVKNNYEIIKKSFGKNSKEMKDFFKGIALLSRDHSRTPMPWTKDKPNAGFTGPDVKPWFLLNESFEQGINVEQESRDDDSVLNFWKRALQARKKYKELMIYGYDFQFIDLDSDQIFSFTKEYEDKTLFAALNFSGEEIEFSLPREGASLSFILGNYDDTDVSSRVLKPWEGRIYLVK
# Protocol: as §1, §2
# α-glucosidase (rice) = target: T2, α-glucosidase (rice) (Oryza sativa subsp. japonica, UniProt Q653V7); test: glycosidase inhibition assay, α-glucosidase from rice; format: biochemical; conditions: for inhibition at 1000 µM: pH 5.1, 1 mM inhibitor, pH 5.1, p-nitrophenyl glycoside 1 mM, read-out: % inhibition at 1 mM concentration of inhibitor
# T2 construct: purchased Sigma Chemical Co
# T2 sequence (Q653V7 34-885): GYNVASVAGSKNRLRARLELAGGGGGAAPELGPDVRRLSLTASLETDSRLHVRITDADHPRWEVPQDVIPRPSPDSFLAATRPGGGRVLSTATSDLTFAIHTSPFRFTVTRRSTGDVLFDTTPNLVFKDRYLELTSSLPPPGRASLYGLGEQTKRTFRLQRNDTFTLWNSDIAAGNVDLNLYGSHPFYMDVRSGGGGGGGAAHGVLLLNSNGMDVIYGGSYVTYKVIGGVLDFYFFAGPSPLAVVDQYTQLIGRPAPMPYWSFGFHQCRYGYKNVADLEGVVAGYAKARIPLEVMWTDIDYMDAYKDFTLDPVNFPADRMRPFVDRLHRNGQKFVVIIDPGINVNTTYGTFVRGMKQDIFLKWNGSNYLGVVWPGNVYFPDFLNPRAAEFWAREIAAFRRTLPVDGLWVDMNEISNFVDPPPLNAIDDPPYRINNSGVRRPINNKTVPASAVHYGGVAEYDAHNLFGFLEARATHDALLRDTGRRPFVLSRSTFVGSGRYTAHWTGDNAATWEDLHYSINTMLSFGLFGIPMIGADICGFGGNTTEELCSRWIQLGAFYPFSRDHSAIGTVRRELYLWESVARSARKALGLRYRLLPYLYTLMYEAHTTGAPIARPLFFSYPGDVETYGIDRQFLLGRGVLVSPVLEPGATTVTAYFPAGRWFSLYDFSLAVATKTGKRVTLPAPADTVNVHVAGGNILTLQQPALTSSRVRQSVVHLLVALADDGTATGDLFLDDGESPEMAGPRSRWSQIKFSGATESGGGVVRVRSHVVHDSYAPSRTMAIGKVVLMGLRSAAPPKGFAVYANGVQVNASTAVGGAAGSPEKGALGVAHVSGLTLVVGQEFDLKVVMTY
# Protocol: as §1, §2
# [2] = target: T3, β-glucosidase (Asp. niger) (Aspergillus niger, UniProt A2RAL4); test: glycosidase inhibition assay, β-glucosidase from A. niger; format: biochemical; conditions: for inhibition at 1000 µM: pH 5.6, 1 mM inhibitor, pH 5.6, read-out: % inhibition at 1 mM concentration of inhibitor
# T3 construct: purchased Sigma Chemical Co
# T3 sequence (A2RAL4 20-860): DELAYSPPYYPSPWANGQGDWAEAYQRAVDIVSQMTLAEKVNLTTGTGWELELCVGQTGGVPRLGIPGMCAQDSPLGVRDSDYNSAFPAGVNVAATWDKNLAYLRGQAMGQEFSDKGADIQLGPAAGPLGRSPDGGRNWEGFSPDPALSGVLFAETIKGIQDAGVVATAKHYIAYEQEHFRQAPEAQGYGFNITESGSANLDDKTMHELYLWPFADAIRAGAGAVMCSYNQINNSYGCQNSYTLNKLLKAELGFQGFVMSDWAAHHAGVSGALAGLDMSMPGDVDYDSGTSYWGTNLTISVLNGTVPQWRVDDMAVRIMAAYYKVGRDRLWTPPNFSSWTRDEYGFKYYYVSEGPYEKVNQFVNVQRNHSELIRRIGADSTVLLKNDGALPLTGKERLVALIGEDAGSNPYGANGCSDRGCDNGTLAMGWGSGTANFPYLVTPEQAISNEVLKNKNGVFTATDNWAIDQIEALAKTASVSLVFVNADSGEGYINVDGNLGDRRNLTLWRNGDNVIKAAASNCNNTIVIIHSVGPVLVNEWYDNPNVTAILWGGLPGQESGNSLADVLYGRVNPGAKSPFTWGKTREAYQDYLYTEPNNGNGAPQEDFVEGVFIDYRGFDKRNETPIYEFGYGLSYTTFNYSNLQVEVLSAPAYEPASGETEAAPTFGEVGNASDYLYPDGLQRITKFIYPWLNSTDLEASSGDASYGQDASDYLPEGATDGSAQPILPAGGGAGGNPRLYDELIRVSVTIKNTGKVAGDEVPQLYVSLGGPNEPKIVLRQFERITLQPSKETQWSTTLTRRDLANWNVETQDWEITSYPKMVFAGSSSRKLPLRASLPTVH
# Protocol: as §1, §2
# [3] = target: T4, α-mannosidase (Jack bean) (Canavalia ensiformis, UniProt C0HJB3); test: glycosidase inhibition assay, α-mannosidase from Jack bean; format: biochemical
# T4 construct: purchased Sigma Chemical Co
# T4 sequence (C0HJB3 1-981): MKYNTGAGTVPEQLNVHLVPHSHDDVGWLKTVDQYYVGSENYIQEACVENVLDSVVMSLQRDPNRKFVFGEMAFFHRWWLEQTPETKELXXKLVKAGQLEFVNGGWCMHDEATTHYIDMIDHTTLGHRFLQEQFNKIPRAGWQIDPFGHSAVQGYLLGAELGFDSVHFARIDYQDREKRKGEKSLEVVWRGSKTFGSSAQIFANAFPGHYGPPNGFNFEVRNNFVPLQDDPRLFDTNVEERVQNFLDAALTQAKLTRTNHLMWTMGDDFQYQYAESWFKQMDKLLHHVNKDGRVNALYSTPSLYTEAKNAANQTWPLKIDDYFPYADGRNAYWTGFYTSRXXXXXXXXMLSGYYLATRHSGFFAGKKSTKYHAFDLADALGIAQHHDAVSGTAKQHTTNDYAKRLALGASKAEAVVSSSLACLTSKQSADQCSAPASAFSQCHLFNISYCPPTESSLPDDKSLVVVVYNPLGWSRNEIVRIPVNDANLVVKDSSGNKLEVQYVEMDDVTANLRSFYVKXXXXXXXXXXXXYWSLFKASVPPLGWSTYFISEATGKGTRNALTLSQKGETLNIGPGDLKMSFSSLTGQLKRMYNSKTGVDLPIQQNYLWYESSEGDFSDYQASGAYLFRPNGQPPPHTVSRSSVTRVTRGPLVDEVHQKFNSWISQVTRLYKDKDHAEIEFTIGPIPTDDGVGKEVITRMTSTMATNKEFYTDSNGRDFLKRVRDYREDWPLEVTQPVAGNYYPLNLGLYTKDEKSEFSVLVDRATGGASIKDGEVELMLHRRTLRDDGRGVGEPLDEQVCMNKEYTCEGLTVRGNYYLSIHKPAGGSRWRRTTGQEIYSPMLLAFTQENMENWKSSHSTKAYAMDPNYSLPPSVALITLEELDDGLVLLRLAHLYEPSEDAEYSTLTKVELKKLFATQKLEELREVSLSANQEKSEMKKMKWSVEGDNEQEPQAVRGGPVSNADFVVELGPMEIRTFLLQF
# Protocol: as §1, §2
# [4] = target: T5, β-galactosidase (Asp. orizae) (Aspergillus oryzae, UniProt Q2UCU3); test: glycosidase inhibition assay, β-galactosidase from A. orizae; format: biochemical; conditions: for inhibition at 1000 µM: pH 5.6, read-out: % inhibition at 1 mM concentration of inhibitor; for IC50: pH 5.6
# T5 construct: purchased Sigma Chemical Co
# T5 sequence (Q2UCU3 19-1005): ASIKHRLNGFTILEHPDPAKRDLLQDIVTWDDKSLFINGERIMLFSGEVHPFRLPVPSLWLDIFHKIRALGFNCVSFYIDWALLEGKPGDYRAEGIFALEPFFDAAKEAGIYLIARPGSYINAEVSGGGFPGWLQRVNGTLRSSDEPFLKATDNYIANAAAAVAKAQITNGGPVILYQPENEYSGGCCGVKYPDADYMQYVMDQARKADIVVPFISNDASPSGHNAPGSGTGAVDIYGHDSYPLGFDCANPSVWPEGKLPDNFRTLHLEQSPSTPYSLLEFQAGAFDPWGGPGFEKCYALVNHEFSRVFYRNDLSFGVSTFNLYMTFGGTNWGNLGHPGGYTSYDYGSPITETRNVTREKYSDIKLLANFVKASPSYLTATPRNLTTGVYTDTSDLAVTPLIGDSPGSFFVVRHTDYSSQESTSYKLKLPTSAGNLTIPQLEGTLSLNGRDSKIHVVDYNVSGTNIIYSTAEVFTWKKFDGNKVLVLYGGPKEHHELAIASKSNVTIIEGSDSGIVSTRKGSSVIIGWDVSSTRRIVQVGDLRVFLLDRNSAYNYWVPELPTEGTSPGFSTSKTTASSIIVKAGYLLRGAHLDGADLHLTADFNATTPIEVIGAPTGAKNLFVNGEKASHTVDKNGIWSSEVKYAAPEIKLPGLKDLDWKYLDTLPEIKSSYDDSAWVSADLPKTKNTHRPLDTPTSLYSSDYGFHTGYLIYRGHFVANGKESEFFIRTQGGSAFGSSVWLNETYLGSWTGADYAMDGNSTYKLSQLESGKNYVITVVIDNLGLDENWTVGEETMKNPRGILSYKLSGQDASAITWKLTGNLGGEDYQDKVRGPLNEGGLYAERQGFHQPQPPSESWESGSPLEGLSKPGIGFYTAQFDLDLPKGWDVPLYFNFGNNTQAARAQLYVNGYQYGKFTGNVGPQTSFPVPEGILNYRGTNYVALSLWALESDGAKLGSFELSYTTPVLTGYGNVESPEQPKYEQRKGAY
# Protocol: as §1, §2
# [5] = system: α-rhamnosidase (Asp. niger); test: glycosidase inhibition assay, α-rhamnosidase from A. niger; format: biochemical; conditions: 1 mM inhibitor; pH 5.6
# Protocol: as §1, §2
# β-glucosidase (almond) = test: glycosidase inhibition assay, β-glucosidase from almond; format: biochemical; conditions: pH 5.6; for % inhibition at 1 mM concentration of inhibitor: 1 mM inhibitor
# Protocol: as §1, §2
# [6] = target: T6, α-galactosidase (green coffee) (Coffea arabica, UniProt Q42656); test: glycosidase inhibition assay, α-galactosidase from green coffee bean; format: biochemical; conditions: 1 mM inhibitor; pH 5.6; read-out: % inhibition at 1 mM concentration of inhibitor
# T6 construct: purchased Sigma Chemical Co
# T6 sequence (Q42656 16-378): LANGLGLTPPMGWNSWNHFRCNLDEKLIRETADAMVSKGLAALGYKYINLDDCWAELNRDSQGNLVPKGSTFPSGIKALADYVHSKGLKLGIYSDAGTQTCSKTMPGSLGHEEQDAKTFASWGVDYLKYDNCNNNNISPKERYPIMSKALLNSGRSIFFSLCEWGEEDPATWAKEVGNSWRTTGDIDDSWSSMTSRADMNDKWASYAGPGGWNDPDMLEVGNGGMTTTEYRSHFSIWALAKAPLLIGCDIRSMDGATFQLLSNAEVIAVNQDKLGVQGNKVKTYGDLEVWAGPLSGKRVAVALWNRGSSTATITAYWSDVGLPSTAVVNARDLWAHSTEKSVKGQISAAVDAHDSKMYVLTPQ
# Protocol: as §1, §2
# fucosidase = target: fucosidase; set-up: method as in PMID 27138139; conditions: cited from earlier work
# [7] = pH 5.6, read-out: % inhibition at 1 mM concentration of inhibitor
# [8] = 1 mM inhibitor, pH 5.6, read-out: % inhibition at 1 mM concentration of inhibitor
smiles,measurement,setting,value
C=CC[C@@H]1[C@@H](O)[C@H](O)[C@@H](CO)N1CCOCCOCCN1[C@H](CO)[C@@H](O)[C@H](O)[C@H]1CC=C [16d],% inhibition at 1 mM concentration of inhibitor,β-GlcNAc-ase (Jack bean),–33% ^c
same,activation of enzyme activity,β-GlcNAc-ase (Jack bean),33%
same,enhancement of enzyme activity,"[1]; activation, 1 mM compound",20%
same,inhibition at 1000 µM,[1]; pH 6.2,-20%
same,inhibition at 1000 µM,α-glucosidase (rice),26%
same,inhibition at 1000 µM,[2],51%
same,inhibition at 1000 µM,[3]; [7],32%
same,inhibition at 1000 µM,[4],58%
same,% inhibition at 1 mM concentration of inhibitor,[5],25%
same,% inhibition at 1 mM concentration of inhibitor,β-glucosidase (almond),25%
same,inhibition at 1000 µM,[6],< 5%
OC[C@@H]1[C@@H](O)[C@H](O)CN1Cc1ccc(CN2C[C@@H](O)[C@H](O)[C@H]2CO)cc1 [13b],% inhibition at 1 mM concentration of inhibitor,β-GlcNAc-ase (Jack bean),NI (NI means no impact on enzyme activity (less than 5% inhibition or activation))
same,IC50,[1],39 µM
same,inhibition at 1000 µM,[1]; pH 6.2,95%
same,inhibition at 1000 µM,α-glucosidase (rice),77%
same,inhibition at 1000 µM,[2],43%
same,inhibition at 1000 µM,[3]; [8],84%
same,IC50,[4],2.8 µM
same,inhibition at 1000 µM,[4],> 95%
same,% inhibition at 1 mM concentration of inhibitor,[5],24%
same,% inhibition at 1 mM concentration of inhibitor,β-glucosidase (almond),16%
same,inhibition at 1000 µM,[6],< 5%
OC[C@@H]1[C@@H](O)[C@H](O)CN1CCOCCOCCN1C[C@@H](O)[C@H](O)[C@H]1CO [13d],% inhibition at 1 mM concentration of inhibitor,β-GlcNAc-ase (Jack bean),–38% ^c
same,activation of enzyme activity,β-GlcNAc-ase (Jack bean),38%
same,inhibition at 1000 µM,[1]; pH 6.2,~90%
same,inhibition at 1000 µM,α-glucosidase (rice),~90%
same,inhibition at 1000 µM,[2],~90%
same,inhibition at 1000 µM,[3]; [7],82%
same,inhibition at 1000 µM,[4],92%
same,% inhibition at 1 mM concentration of inhibitor,[5],46%
same,% inhibition at 1 mM concentration of inhibitor,β-glucosidase (almond),24%
same,inhibition at 1000 µM,[6],22%
C[C@@H]1N[C@@H](CCCC[C@@H]2N[C@@H](C)[C@@H](O)[C@H]2O)[C@H](O)[C@@H]1O [compound 6],IC50,fucosidase,108 nM
same,fold increase in the inhibition potency relative to the monomer,fucosidase; dimer vs monomer,19 fold
OC[C@@H]1[C@@H](O)[C@H](O)CN1Cc1cccc(CN2C[C@@H](O)[C@H](O)[C@H]2CO)c1 [13a],% inhibition at 1 mM concentration of inhibitor,β-GlcNAc-ase (Jack bean),NI (NI means no impact on enzyme activity (less than 5% inhibition or activation))
same,inhibition at 1000 µM,[1]; pH 6.2,88%
same,inhibition at 1000 µM,α-glucosidase (rice),40%
same,inhibition at 1000 µM,[2],24%
same,inhibition at 1000 µM,[3]; [7],75%
same,inhibition at 1000 µM,[4],93%
same,% inhibition at 1 mM concentration of inhibitor,[5],67%
same,% inhibition at 1 mM concentration of inhibitor,β-glucosidase (almond),13%
same,inhibition at 1000 µM,[6],38%
OC[C@@H]1[C@@H](O)[C@H](O)CN1CCCCCCCCN1C[C@@H](O)[C@H](O)[C@H]1CO [13c],% inhibition at 1 mM concentration of inhibitor,β-GlcNAc-ase (Jack bean),NI (NI means no impact on enzyme activity (less than 5% inhibition or activation))
same,inhibition at 1000 µM,[1]; pH 6.2,88%
same,inhibition at 1000 µM,α-glucosidase (rice),92%
same,inhibition at 1000 µM,[2],94%
same,inhibition at 1000 µM,[3]; [8],> 95%
same,IC50,[3]; pH 5.6,18 µM
same,IC50,[4],31 µM
same,inhibition at 1000 µM,[4],> 95%
same,% inhibition at 1 mM concentration of inhibitor,[5],69%
same,% inhibition at 1 mM concentration of inhibitor,β-glucosidase (almond),60%
same,inhibition at 1000 µM,[6],61%
OC[C@H]1NC[C@@H](O)[C@@H]1O [DAB-1],% inhibition at 1 mM concentration of inhibitor,β-GlcNAc-ase (Jack bean),14%
same,inhibition at 1000 µM,[1]; pH 6.2,> 95%
same,IC50,"[1]; pH 6.2, determined when >95% inhibition at 1 mM, read-out: IC50",0.69 µM
same,IC50,α-glucosidase (rice),7.8 µM
same,inhibition at 1000 µM,α-glucosidase (rice),> 95%
same,IC50,[2],62 µM
same,inhibition at 1000 µM,[2],> 95%
same,inhibition at 1000 µM,[3]; [8],> 95%
same,IC50,[3]; pH 5.6,49 µM
same,inhibition at 1000 µM,[4],76%
same,% inhibition at 1 mM concentration of inhibitor,[5],34%
same,% inhibition at 1 mM concentration of inhibitor,β-glucosidase (almond),95%
same,IC50,β-glucosidase (almond),79 µM
same,inhibition at 1000 µM,[6],11%
OC[C@@H]1[C@@H](O)[C@H](O)CN1CCCOCCOCCOCCCN1C[C@@H](O)[C@H](O)[C@H]1CO [13e],% inhibition at 1 mM concentration of inhibitor,β-GlcNAc-ase (Jack bean),NI (NI means no impact on enzyme activity (less than 5% inhibition or activation))
same,inhibition at 1000 µM,[1]; pH 6.2,65%
same,inhibition at 1000 µM,α-glucosidase (rice),72%
same,inhibition at 1000 µM,[2],91%
same,inhibition at 1000 µM,[3]; [8],> 95%
same,IC50,[3]; pH 5.6,34 µM
same,inhibition at 1000 µM,[4],81%
same,% inhibition at 1 mM concentration of inhibitor,[5],18%
same,% inhibition at 1 mM concentration of inhibitor,β-glucosidase (almond),23%
same,inhibition at 1000 µM,[6],22%
